# What was measured:
# [1] = system: IPOHE (Ipomoea hederacea, ivyleaf morningglory); test: Pre-emergence soil-applied mixtures, greenhouse; format: in vivo, Ipomoea hederacea (L.) Jacq.
# Text: (§1) Seeds or nutlets of the desired test plant species were planted in a soil matrix prepared by mixing a loam soil (32 percent silt, 23 percent clay, and 45 percent sand, with a pH of about 6.5 and an organic matter content of about 1.9 percent) and calcareous grit in an 80 to 20 ratio. The soil matrix was contained in plastic pots with a volume of 1 quart and a surface area of 83.6 square centimeters (cm^2).
# (§2) Treatments consisted of the benzyl ester of 4-amino-3-chloro-5-fluoro-6-(4-chloro-2-fluoro-3-methoxy-phenyl)pyridine-2-carboxylic acid (compound A) formulated as an SC (suspension concentrate) and various herbicidal components alone and in combination. Forms of compound A were applied on an acid equivalent basis.
# (§3) Other herbicidal components were applied on an acid equivalent or active ingredient basis and included the PSII-inhibiting herbicides, atrazine formulated as Atrazine® 90WDG, metribuzin formulated as Metribuzin 75DF, simazine formulated as Princep Caliber 90, tebuthiuron formulated as Spike 80DF, cyanazine (technical grade material), hexazinone (technical grade material), linuron (technical grade material), terbuthylazine (technical grade material), and diuron formulated as Diuron 4L.
# (§4) Treatment requirements were calculated based upon the rates being tested, the concentration of active ingredient or acid equivalent in the formulation, and a 12 mL application volume at a rate of 187 L/ha.
# (§5) For treatments comprised of formulated compounds, measured amounts of compounds were placed individually in 25 mL glass vials and diluted in a volume of 1.25% (v/v) Agri-Dex® crop oil concentrate (COC) to obtain 12× stock solutions. […] Application solutions were prepared by adding an appropriate amount of each stock solution (e.g., 1 mL) and diluted to the appropriate final concentrations with the addition of 10 mL of an aqueous mixture of 1.25% (v/v) COC so that the final spray solutions contained 1.25% (v/v) COC.
# For treatments comprised of technical compounds, weighed amounts can be placed individually in 25 mL glass vials and dissolved in a volume of 97:3 (v/v) acetone/DMSO to obtain 12× stock solutions. […]
# For treatments comprised of formulated and technical compounds, weighed amounts of the technical materials can be placed individually in 25 mL glass vials and dissolved in a volume of 97:3 (v/v) acetone/DMSO to obtain 12× stock solutions, and measured amounts of the formulated compounds can be placed individually in 25 mL glass vials and diluted in a volume of 1.5% (v/v) COC or water to obtain 12× stock solutions. […]
# [2] = system: SETFA (Setaria faberi, giant foxtail); test: Pre-emergence soil-applied mixtures, greenhouse; format: in vivo, Setaria faberi Herrm.; details: for Visual Weed Control (%) Obs: 27 DAA
# Text: as §1, §2, §3, §4, §5
# For treatments comprised of technical compounds, weighed amounts can be placed individually in 25 mL glass vials and dissolved in a volume of 97:3 (v/v) acetone/DMSO to obtain 12× stock solutions. […] Application solutions can be prepared by adding an appropriate amount of each stock solution (e.g., 1 mL) and diluted to the appropriate final concentrations with the addition of 10 mL of an aqueous mixture of 1.5% (v/v) COC so that the final spray solutions contain 1.25% (v/v) COC. When technical materials are used, the concentrated stock solutions can be added to the spray solutions so that the final acetone and DMSO concentrations of the application solutions are 16.2% and 0.5%, respectively.
# For treatments comprised of formulated and technical compounds, weighed amounts of the technical materials can be placed individually in 25 mL glass vials and dissolved in a volume of 97:3 (v/v) acetone/DMSO to obtain 12× stock solutions, and measured amounts of the formulated compounds can be placed individually in 25 mL glass vials and diluted in a volume of 1.5% (v/v) COC or water to obtain 12× stock solutions. […] Application solutions can be prepared by adding an appropriate amount of each stock solution (e.g., 1 mL) and diluted to the appropriate final concentrations with the addition of an appropriate amount of an aqueous mixture of 1.5% (v/v) COC so that the final spray solutions contain 1.25% (v/v) COC. As required, additional water and/or 97:3 (v/v) acetone/DMSO can be added to individual application solutions so that the final acetone and DMSO concentrations of the application solutions being compared are 8.1% and 0.25%, respectively.
# All stock solutions and applications solutions were visually inspected for compound compatibility prior to application. Spray solutions were applied to the soil with an overhead Mandel track sprayer equipped with a 8002E nozzles calibrated to deliver 187 L/ha over an application area of 0.503 m^2 at a spray height of 18 inches (46 cm) above average pot height. […]
# [3] = Compound A Benzyl Ester 16 g ae/ha
# [4] = Compound A Benzyl Ester 32 g ae/ha
smiles,measurement,setting,value
"COc1c(Cl)ccc(-c2nc(C(=O)OCc3ccccc3)c(Cl)c(N)c2F)c1F [Compound A Benzyl Ester, benzyl ester of 4-amino-3-chloro-5-fluoro-6-(4-chloro-2-fluoro-3-methoxy-phenyl)pyridine-2-carboxylic acid]",Visual Weed Control (%) - 33 DAA IPOHE Obs,[1]; [3],0%
same,Visual Weed Control (%) - 33 DAA IPOHE Obs,[1]; [4],5%
same,Visual Weed Control (%) Obs,[2]; 16 g ae/ha,8%
same,Visual Weed Control (%) Obs,[2]; 32 g ae/ha,15%
same,Visual Weed Control (%)-29 DAA SETFA Obs,[2]; [3],0%
same,Visual Weed Control (%)-29 DAA SETFA Obs,[2]; [4],0%
